According to patent publication US20030022821A1, “Bioactive peptides” (priority 1998, published 2003):
Values after ≈ are worked out from the molar mass of the structure shown. Values joined by “and” are separate entries in the source; they are usually repeats but may differ in a detail not shown here. Equal values may be shown once. “Also recorded” adds a separate entry of the source. Read-outs that look alike come from different tables or passages of the source. Values belong to the compound of their own block, whether it stands above or below them. Square brackets hold non-standard residues; d marks the D form. Ends that are not written are not given here. Peptide text beside a SMILES is read from it. Bip = N[C@@H](Cc1ccc(-c2ccccc2)cc1)C(=O)O

Tests used:
Assay type in all cases: cell-based
[1] = system: Escherichia coli ATCC 25922
Procedure, shortened: (§1)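 Bacteria in mid-log phase, grown in 2% Bacto Peptone water, were tested by standard microdilution in 1% Bacto Peptone water at an inoculum of 2×10^6 CFU/ml. Runs were in triplicate, and peptide concentration in the wells was checked by HPLC.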

[2] = system: Staphylococcus aureus ATCC 25923
Procedure, shortened: as §1

[3] = system: MRSA (methicillin resistant S. aureus)
Description: The bacterial strains used were: Escherichia coli ATCC 25922 and Staphylococcus aureus ATCC 25923. All strains were stored at −70° C. The bacteria were grown in 2% Bacto Peptone water (Difco 1807-17-4). All tests were performed with bacteria in mid-logarithmic growth phase. Determination of the minimum inhibitory concentration (MIC) of the peptides for bacterial strains were performed in 1% Bacto Peptone water. A standard microdilution technique with an inoculum of 2×10^6 CFU/ml was used. All assays were performed in triplets. Since the peptides are positively charged and therefore could adhere to the plastic wells, we controlled the actual concentration of the peptides in the solution by HPLC. There was no difference between the concentration of the peptides before or after adding the solution to the plastic wells.
Table 13 below gives the antibacterial activity and toxicity data for some preferred peptides of the invention. MRSA is methicillin resistant S. aureus and MRSE is methicillin resistant S. epidermidis.

[4] = system: human red blood cells; test: Hemolytic assay
[5] = system: human promyelotic leukemia cell line HL 60; test: Cytotoxicity on HL 60 cells, MTT; details: at the concentration tested, 4 hours

MIC E. coli ([1]; ATCC 25922): 6.2 µM
MIC E. coli ([1]; Table 10): 10 µg/mL
MIC E. coli ([1]; Table 13): 10.0 µg/mL
MIC S. aureus ([2]; Table 13): 1.0 µg/mL
MIC MRSA ([3]; Table 13): 2.5 µg/mL
MIC MRSA ([3]; methicillin resistant): 1.5 µM
Compound: YRWWRWARRW-NH2 [LFM 17-26 A7R2,8, 9W3,4, 10Y1NH2]
EC50 [4]: 543 ± 56 µM
EC 50 ([4]; Table 13, toxicity (hemolysis)): 880 ± 90 µg/mL

MIC E. coli ([1]; ATCC 25922): 10 µg/mL
MIC E. coli ([1]; Table 13, 8): ≧12.5 μg/ml; also recorded: ≧5.8 μM
MIC S. aureus ([2]; Table 13, 8): 3.0 µg/mL
MIC MRSA ([3]; Table 13, 8): 2.5 µg/mL
MIC MRSA ([3]; methicillin resistant): 1.2 µM
Compound: CSCC[C@H](NC(=O)[C@H](CCCNC(=N)N)NC(=O)[C@H](Cc1ccc(-c2ccccc2)cc1)NC(=O)[C@H](CCC(N)=O)NC(=O)[C@H](Cc1ccc(-c2ccccc2)cc1)NC(=O)[C@H](CCCNC(=N)N)NC(=O)[C@H](CCCNC(=N)N)NC(=O)[C@H](CSCNC(C)=O)NC(=O)[C@H](CCCCN)NC(=O)[C@@H](N)Cc1ccccc1)C(=O)N[C@@H](CCCCN)C(=O)N[C@@H](CCCCN)C(=O)N[C@@H](CC(C)C)C(=O)NCC(=O)N[C@@H](C)C(=O)O [LFB Bip6, 8]

MIC E. coli ([1]; ATCC 25922): 7.5 µg/mL
MIC S. aureus ([2]; ATCC 25923): 5 µg/mL
MIC MRSA ([3]; methicillin resistant): 2.5 µg/mL
Compound: N=C(N)NCCC[C@@H](N)C(=O)N[C@@H](Cc1c[nH]c2ccccc12)C(=O)N[C@H](Cc1c[nH]c2ccccc12)C(=O)N[C@@H](CCCNC(=N)N)C(=O)N[C@H](Cc1ccc(O)cc1)C(=O)N[C@@H](Cc1c[nH]c2ccccc12)C(=O)N[C@H](CCCNC(=N)N)C(N)=O [arg-TRP-trp-ARG-tyr-TRP-arg-CONH2] (H-[dR]W[dW]R[dY]W[dR]-NH2; N-terminus assumed)

MIC E. coli ([1]; ATCC 25922): 7.5 µg/mL
MIC S. aureus ([2]; ATCC 25923): 5 µg/mL
MIC MRSA ([3]; methicillin resistant): 2.5 µg/mL
Compound: N=C(N)NCCC[C@@H](N)C(=O)N[C@H](Cc1c[nH]c2ccccc12)C(=O)N[C@@H](Cc1c[nH]c2ccccc12)C(=O)N[C@@H](CCCNC(=N)N)C(=O)N[C@@H](Cc1ccc(O)cc1)C(=O)N[C@H](Cc1c[nH]c2ccccc12)C(=O)N[C@H](CCCNC(=N)N)C(N)=O [arg-trp-TRP-ARG-TYR-trp-arg-CONH2] (H-[dR][dW]WRY[dW][dR]-NH2)

Continued, compound first:

Compound: C[C@@H](NC(=O)[C@H](CCCNC(=N)N)NC(=O)[C@H](N)Cc1ccc(O)cc1)C(=O)N[C@@H](Cc1c[nH]c2ccccc12)C(=O)N[C@H](CCCNC(=N)N)C(=O)N[C@@H](Cc1c[nH]c2ccccc12)C(=O)N[C@H](C)C(=O)N[C@@H](Cc1c[nH]c2ccccc12)C(=O)N[C@H](CCCNC(=N)N)C(=O)N[C@@H](Cc1c[nH]c2ccccc12)C(=O)N[C@H](CCCNC(=N)N)C(N)=O [tyr-ARG-ala-TRP-arg-TRP-ala-TRP-arg-TRP-arg-CONH2] (H-[dY]R[dA]W[dR]W[dA]W[dR]W[dR]-NH2; N-terminus assumed)
MIC E. coli ([1]; ATCC 25922): 7.5 µg/mL
MIC S. aureus ([2]; ATCC 25923): 7.5 µg/mL
MIC MRSA ([3]; methicillin resistant): 2.5 µg/mL

Compound: C[C@@H](NC(=O)[C@H](Cc1c[nH]c2ccccc12)NC(=O)[C@H](CCCNC(=N)N)NC(=O)[C@H](Cc1c[nH]c2ccccc12)NC(=O)[C@@H](C)NC(=O)[C@@H](CCCNC(=N)N)NC(=O)[C@H](N)Cc1ccc(O)cc1)C(=O)N[C@@H](Cc1c[nH]c2ccccc12)C(=O)N[C@@H](CCCNC(=N)N)C(=O)N[C@@H](Cc1c[nH]c2ccccc12)C(=O)N[C@@H](CCCNC(=N)N)C(N)=O (H-[dY][dR][dA]WRW[dA]WRWR-NH2)
MIC E. coli ([1]; Table 14, peptides with a proportion of D amino acids): 7.5 µg/mL
MIC S. aureus ([2]; Table 14): 5 µg/mL
MIC MRSA ([3]; Table 14): 2.5 µg/mL

Compound: CSCC[C@H](NC(=O)[C@H](CCCNC(=N)N)NC(=O)[C@H](Cc1ccc2ccccc2c1)NC(=O)[C@H](CCC(N)=O)NC(=O)[C@H](Cc1ccc2ccccc2c1)NC(=O)[C@H](CCCNC(=N)N)NC(=O)[C@H](CCCNC(=N)N)NC(=O)[C@H](CSCNC(C)=O)NC(=O)[C@H](CCCCN)NC(=O)[C@@H](N)Cc1ccccc1)C(=O)N[C@@H](CCCCN)C(=O)N[C@@H](CCCCN)C(=O)N[C@@H](CC(C)C)C(=O)NCC(=O)N[C@@H](C)C(=O)O [LFB Nal6, 8]
MIC E. coli ([1]; ATCC 25922): 4.8 µM
MIC E. coli ([1]; Table 8): 10 µg/mL
MIC E. coli ([1]; Table 13, 8): 10.0 µg/mL
MIC S. aureus ([2]; ATCC 25923): 9.6 µM
MIC S. aureus ([2]; Table 8): 20 µg/mL
MIC S. aureus ([2]; Table 13, 8): 20.0 µg/mL
MIC MRSA ([3]; Table 13, 8): 5.0 µg/mL
MIC MRSA ([3]; methicillin resistant): 2.4 µM
EC 50 [4]: >1000 µg/mL
EC50 [4]: > 479 µM
% Hemolysis 10 μg/ml ([4]; red cells of human, 10): 2.8%
% Hemolysis 100 μg/ml ([4]; red cells of human, 100): 4.9%

Compound: CSCC[C@H](NC(=O)[C@H](CCCNC(=N)N)NC(=O)[C@H](Cc1ccc(-c2ccccc2)cc1)NC(=O)[C@H](CCC(N)=O)NC(=O)[C@H](Cc1c(S(=O)(=O)c2c(C)c(C)c3c(c2C)CCC(C)(C)O3)[nH]c2ccccc12)NC(=O)[C@H](CCCNC(=N)N)NC(=O)[C@H](CCCNC(=N)N)NC(=O)[C@H](CSCNC(C)=O)NC(=O)[C@H](CCCCN)NC(=O)[C@@H](N)Cc1ccccc1)C(=O)N[C@@H](CCCCN)C(=O)N[C@@H](CCCCN)C(=O)N[C@@H](CC(C)C)C(=O)NCC(=O)N[C@@H](C)C(=O)O [LFB Bip8 PMC]
MIC E. coli ([1]; Table 8): 25 µg/mL
MIC E. coli ([1]; Table 13): 15.0 μg/ml and 6.3 μM
MIC S. aureus ([2]; Table 8): 5 µg/mL
MIC S. aureus ([2]; Table 13): 2.5 μg/ml and 1.1 μM
MIC MRSA ([3]; Table 13): 2.5 μg/ml and 1.1 μM

Compound: CC[C@H](C)[C@H](NC(=O)[C@H](CO)NC(=O)[C@@H]1CCCN1C(=O)[C@H](C)NC(=O)CNC(=O)[C@H](CC(C)C)NC(=O)[C@H](CCCCN)NC(=O)[C@H](CCCCN)NC(=O)[C@H](CCSC)NC(=O)[C@H](CCCNC(=N)N)NC(=O)[C@H](Cc1c[nH]c2ccccc12)NC(=O)[C@H](CCC(N)=O)NC(=O)[C@H](Cc1c[nH]c2ccccc12)NC(=O)[C@H](CCCNC(=N)N)NC(=O)[C@H](CCCNC(=N)N)NC(=O)[C@H](CSCNC(C)=O)NC(=O)[C@H](CCCCN)NC(=O)[C@@H](N)Cc1ccccc1)C(=O)N[C@H](C(=O)N[C@@H](CSCNC(C)=O)C(=O)N[C@H](C(=O)N[C@@H](CCCNC(=N)N)C(=O)N[C@@H](CCCNC(=N)N)C(=O)N[C@@H](C)C(=O)N[C@@H](Cc1ccccc1)C(=O)O)C(C)C)[C@@H](C)O [LFB (17-41), reference compound]
MIC E. coli ATCC 25922 ([1]; Table 1): 30 µg/mL (≈ 9.18 µM)
MIC S. aureus ATCC 25923 ([2]; Table 1): 30 µg/mL (≈ 9.18 µM)
cytotoxic effect on human HL 60 cells [5]: weak concentration dependant cytotoxic effect

Compound: CSCC[C@H](NC(=O)[C@H](CCCNC(=N)N)NC(=O)[C@H](Cc1c[nH]c2ccccc12)NC(=O)[C@H](CCC(N)=O)NC(=O)[C@H](Cc1c[nH]c2ccccc12)NC(=O)[C@H](CCCNC(=N)N)NC(=O)[C@H](CCCNC(=N)N)NC(=O)[C@H](Cc1ccc(-c2ccccc2)cc1)NC(=O)[C@H](CCCCN)NC(=O)[C@@H](N)Cc1ccccc1)C(=O)N[C@@H](CCCCN)C(=O)N[C@@H](CCCCN)C(=O)N[C@@H](CC(C)C)C(=O)NCC(=O)N[C@@H](C)C(=O)O [LFB Bip3] (H-FK[Bip]RRWQWRMKKLGA-OH; N-terminus assumed)
MIC E. coli ([1]; Table 13, listed as LPB Bip 3): 12.5 µg/mL
MIC MRSA ([3]; Table 13, listed as LPB Bip 3): 2.5 µg/mL
MIC MRSA ([3]; methicillin resistant): 1.2 µM
